Several values for one entry are separate records, joined by “and”; a condition that tells them apart may be missing. Equal entries are not always repeated.
Tests used:
SHP2 = molecular target: T1, SHP2 (Homo sapiens, UniProt Q06124); assay: SHP2 degradation by Western blotting in KYSE-520 cells; type: cell-based; design: endogenous in cells; host or cells: KYSE-520; conditions: 16 h
T1 sequence (Q06124 1-593): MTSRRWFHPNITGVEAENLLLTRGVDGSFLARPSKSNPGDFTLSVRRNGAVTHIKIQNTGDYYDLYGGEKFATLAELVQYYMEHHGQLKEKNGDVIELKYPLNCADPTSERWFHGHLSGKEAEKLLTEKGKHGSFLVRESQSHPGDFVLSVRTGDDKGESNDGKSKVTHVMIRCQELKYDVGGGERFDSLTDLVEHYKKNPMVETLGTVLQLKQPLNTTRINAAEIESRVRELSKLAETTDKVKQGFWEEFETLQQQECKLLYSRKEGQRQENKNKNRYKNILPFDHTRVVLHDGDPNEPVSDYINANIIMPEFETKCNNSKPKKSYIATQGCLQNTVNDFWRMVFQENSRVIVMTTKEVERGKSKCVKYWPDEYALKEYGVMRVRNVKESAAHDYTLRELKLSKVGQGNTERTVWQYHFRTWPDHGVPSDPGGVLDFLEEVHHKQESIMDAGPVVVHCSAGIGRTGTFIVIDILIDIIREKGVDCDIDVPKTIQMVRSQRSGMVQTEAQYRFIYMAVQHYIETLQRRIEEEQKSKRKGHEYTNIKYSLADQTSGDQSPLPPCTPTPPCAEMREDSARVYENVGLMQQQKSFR
Experimental: HEK293, SKBR3, U2OS, MCF7 and A549 cells were grown in DMEM supplemented with 10% FBS, penicillin (50 units/mL), and streptomycin (50 μg/mL) in a 37 °C incubator containing 5% CO2. KYSE-520 and H358 cells were grown in RPMI-1640 supplemented with 10% FBS, penicillin (50 units/mL), and streptomycin (50 μg/mL) in a 37 °C incubator containing 5% CO2. For western-blot analysis, protein samples were separated by SDS-PAGE, transferred to nitrocellulose membranes, and incubated overnight at 4 °C with corresponding primary antibodies diluted in 5% BSA in phosphate-buffered saline Tween (PBST). SuperSignal™ West Pico PLUS (PI34580; Thermo Scientific) was used to visualize the antibodies in the bioanalytical imaging system (Azure Biosystems c500). Anti-p-ERK1/2 (T202/Y204) (4370), and anti-ERK1/2 (4696) were purchased from Cell Signaling Technology. Anti-GAPDH (sc-365062), anti-SHP2 (sc-7384), anti-SHP1 (sc-7289), and anti-Actin (sc-8432) antibodies were purchased from Santa Cruz. Anti-PTP1B (ab244207) antibody was purchased from Abcam. For colony formation assay, a total of approximately 200–500 cells were seeded to each well in a 12-well plate. The wells were then treated with DMSO, compound P9 and 3 at 37 °C for 3 weeks, gently washed, and stained with crystal violet.

[1] = Pharmacokinetics in mice, single IP injection; type: in vivo; conditions: for Plasma concentration / concentration at 0.5 h / concentration at 1 h / concentration at 2 h / concentration at 3 h / concentration at 6 h: individual animals; for concentration at 0.5 h / concentration at 1 h / concentration at 2 h / concentration at 3 h / concentration at 6 h / Cmax / half-life / AUC / Tmax: plasma; for concentration at 0.5 h / concentration at 1 h / concentration at 2 h / concentration at 3 h / concentration at 6 h: intraperitoneal; for Cmax / half-life / AUC / Tmax / t1/2: mice
Experimental: Experiments on mice were carried out in accordance with the regulations of the Institutional Animal Care and Use Committees at Purdue University. All mice were housed under pathogen-free conditions in the animal facility and received autoclaved water and food. Eight to ten weeks-old Nude mice were used in the study.
For pharmacokinetic studies, mice were administered a single dose of P9 at 25 or 50 mg/kg via IP injection. Blood samples were collected through the tail vein at indicated time points after injection. Isoflurane was used as an anesthetic. All blood samples were centrifuged at 1500 g for 5 min, and plasma was separated and stored at –80 °C until analysis by a validated method based on reversed-phase liquid chromatography coupled to mass-spectrometric detection (LC/MS) using a previously published procedure.

[2] = Nude, mouse, ip, 25 mg/kg, single IP 25 mg/kg
[3] = Nude, mouse, ip, 50 mg/kg, single IP 50 mg/kg
[4] = Nude, mouse, single IP 25 mg/kg
[5] = Nude, mouse, single IP 50 mg/kg

SMILES: Cc1ncsc1-c1ccc([C@H](C)NC(=O)[C@@H]2C[C@@H](O)CN2C(=O)[C@@H](NC(=O)CCCCCCCCCN2CCN(C(=O)CCCCCC3(CN)CCN(c4cnc(Sc5cccc(Cl)c5Cl)c(N)n4)CC3)CC2)C(C)(C)C)cc1 [P9, (2S,4R)-1-((S)-2-(10-(4-(6-(1-(6-amino-5-((2,3-dichlorophenyl)thio)pyrazin-2-yl)-4-(aminomethyl)piperidin-4-yl)hexanoyl)piperazin-1-yl)decanamido)-3,3-dimethylbutanoyl)-4-hydroxy-N-((S)-1-(4-(4-methylthiazol-5-yl)phenyl)ethyl)pyrrolidine-2-carboxamide]
- DC50 (SHP2): ~130 nM
- Plasma concentration ([1]; 25 mg/kg IP, 0.5 h): 520 nM and 750 nM
- Plasma concentration ([1]; 25 mg/kg IP, 1 h): 1200 nM and 1320 nM
- Plasma concentration ([1]; 25 mg/kg IP, 2 h): 1090 nM and 930 nM
- Plasma concentration ([1]; 25 mg/kg IP, 3 h): 620 nM and 590 nM
- Plasma concentration ([1]; 25 mg/kg IP, 6 h): 410 nM and 390 nM
- Plasma concentration ([1]; 25 mg/kg IP, 24 h): 130 nM and 180 nM and 60 nM
- Plasma concentration ([1]; 50 mg/kg IP, 0.5 h): 1820 nM and 1960 nM
- Plasma concentration ([1]; 50 mg/kg IP, 1 h): 2700 nM and 2550 nM
- Plasma concentration ([1]; 50 mg/kg IP, 2 h): 1760 nM and 1700 nM
- Plasma concentration ([1]; 50 mg/kg IP, 3 h): 1220 nM and 1150 nM
- Plasma concentration ([1]; 50 mg/kg IP, 6 h): 700 nM and 680 nM
- Plasma concentration ([1]; 50 mg/kg IP, 24 h): 160 nM and 240 nM and 100 nM
- concentration at 0.5 h ([1]; Nude, mouse, 25 mg/kg, 25 mg/kg IP, 0.5 h): 560 nM
- concentration at 1 h ([1]; Nude, mouse, 25 mg/kg, 25 mg/kg IP, 1 h): 1020 nM
- concentration at 2 h ([1]; Nude, mouse, 25 mg/kg, 25 mg/kg IP, 2 h): 920 nM
- concentration at 3 h ([1]; Nude, mouse, 25 mg/kg, 25 mg/kg IP, 3 h): 550 nM
- concentration at 6 h ([1]; Nude, mouse, 25 mg/kg, 25 mg/kg IP, 6 h): 360 nM
- concentration at 0.5 h ([1]; Nude, mouse, 50 mg/kg, 50 mg/kg IP, 0.5 h): 1760 nM
- concentration at 1 h ([1]; Nude, mouse, 50 mg/kg, 50 mg/kg IP, 1 h): 2510 nM
- concentration at 2 h ([1]; Nude, mouse, 50 mg/kg, 50 mg/kg IP, 2 h): 1660 nM
- concentration at 3 h ([1]; Nude, mouse, 50 mg/kg, 50 mg/kg IP, 3 h): 1030 nM
- concentration at 6 h ([1]; Nude, mouse, 50 mg/kg, 50 mg/kg IP, 6 h): 550 nM
- Cmax [1, 2]: 1180 ± 130 nM
- half-life [1, 2]: 3.71 ± 0.72 h
- Cmax [1, 3]: 2510 ± 190 nM
- half-life [1, 3]: 3.01 ± 0.48 h
- AUC [1, 4]: 8.51 ± 0.6 µM·h
- Tmax [1, 4]: 2 h
- AUC [1, 5]: 15.1 ± 0.99 µM·h
- Tmax [1, 5]: 2 h
- Cmax ([1]; single IP 25 mg/kg, 25 mg/kg): 1200 ± 100 nM
- t1/2 ([1]; single IP 25 mg/kg, 25 mg/kg): 3.7 ± 0.7 h
- Cmax ([1]; single IP 50 mg/kg, 50 mg/kg): 2500 ± 200 nM
- t1/2 ([1]; single IP 50 mg/kg, 50 mg/kg): 3.0 ± 0.5 h

From PMC10574094, “Discovery of a SHP2 Degrader with In Vivo Anti-Tumor Activity” (Molecules, 2023)
